Results taken from the supplement of paper PMC9013687.
± gives the standard deviation of the averaged measurements.

Assays:
Danio rerio embryo [1] = experiment: EC10 Bladder size_Decrease; higher = less potent; conditions: exposure time: 4 dpf
Protocol: (§1)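 Zebrafish embryos (UFZ-OBI strain) were exposed from 2 hpf for 48 h (2 dpf) or 96 h (4 dpf) at 28 °C; spontaneous tail coiling was scored at 25 hpf. Morphological features from automated image analysis (FishInspector), heart rate and locomotor response were fitted with drc models. Quantal endpoints were dichotomised at 2.5 SD from controls and fitted with a log-logistic model; heart rate, pigmentation and STC were normalised to the replicate control mean. Betamethasone was tested as betamethasone dipropionate, diflorasone as diflorasone diacetate.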

Danio rerio embryo [2] = experiment: EC50 Bladder size_Decrease; conditions: exposure time: 4 dpf
Protocol: as §1

Danio rerio embryo [3] = experiment: EC10 Eye-jaw distance_Decrease; higher = less potent; conditions: exposure time: 4 dpf
Protocol: as §1

Danio rerio embryo [4] = experiment: EC50 Eye-jaw distance_Decrease; conditions: exposure time: 4 dpf
Protocol: as §1

Danio rerio embryo [5] = test system: Danio rerio embryo
Protocol: as §1

Danio rerio embryo [6] = experiment: EC20 Body length_Decrease; higher = less potent
Protocol: as §1

Danio rerio embryo [7] = experiment: EC20 LMR dark; higher = less potent; conditions: exposure time: 4 dpf
Protocol: as §1

Danio rerio embryo [8] = experiment: EC20 Pericard size_Increase; higher = less potent
Protocol: as §1

Danio rerio embryo [9] = experiment: EC20 Curvature_Increase; higher = less potent
Protocol: as §1

Danio rerio embryo [10] = experiment: EC20 Bladder size_Decrease; higher = less potent; conditions: exposure time: 4 dpf
Protocol: as §1

Danio rerio embryo [11] = experiment: EC50 Yolk sac size_Increase; conditions: exposure time: 4 dpf
Protocol: as §1

Danio rerio embryo [12] = experiment: EC10 Any effect; higher = less potent
Protocol: as §1

Danio rerio embryo [13] = experiment: EC20 Eye-jaw distance_Decrease; higher = less potent; conditions: exposure time: 4 dpf
Protocol: as §1

Danio rerio embryo [14] = experiment: EC20 Otolith-eye distance_Decrease; higher = less potent; conditions: exposure time: 4 dpf
Protocol: as §1

Danio rerio embryo [15] = experiment: EC10 Curvature_Increase; higher = less potent
Protocol: as §1

Danio rerio embryo [16] = experiment: spontaneous tail coiling frequency (coils/min/embryo); higher = more spontaneous movement; conditions: 25 hpf
Protocol: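 Spontaneous tail coilings of zebrafish embryos exposed from 2 hpf were recorded at 24-25 hpf in 1-min videos and detected by a KNIME workflow from grey-value variance. Betamethasone was tested as the dipropionate, diflorasone as the diacetate.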

Danio rerio embryo [17] = experiment: EC10 Body length_Decrease; higher = less potent
Protocol: as §1

Danio rerio embryo [18] = experiment: EC50 Pericard size_Increase
Protocol: as §1

Danio rerio embryo [19] = experiment: EC10 Otolith-eye distance_Decrease; higher = less potent; conditions: exposure time: 4 dpf
Protocol: as §1

Danio rerio embryo [20] = experiment: EC20 Yolk sac size_Increase; higher = less potent; conditions: exposure time: 4 dpf
Protocol: as §1

Danio rerio embryo [21] = experiment: EC50 Curvature_Increase
Protocol: as §1

Danio rerio embryo [22] = experiment: EC10 LMR dark; higher = less potent; conditions: exposure time: 4 dpf
Protocol: as §1

Danio rerio embryo [23] = experiment: EC20 Head trunk angle_Decrease; higher = less potent; conditions: exposure time: 2 dpf
Protocol: as §1

Danio rerio embryo [24] = experiment: EC10 Pericard size_Increase; higher = less potent
Protocol: as §1

Danio rerio embryo [25] = experiment: EC10 Yolk sac size_Increase; higher = less potent; conditions: exposure time: 4 dpf
Protocol: as §1

Danio rerio embryo [26] = conditions: exposure time: 4 dpf
Protocol: as §1

Danio rerio embryo [27] = experiment: EC50 Body length_Decrease
Protocol: as §1

Danio rerio embryo [28] = experiment: EC50 Otolith-eye distance_Decrease; conditions: exposure time: 4 dpf
Protocol: as §1

Danio rerio embryo [29] = experiment: EC20 Any effect; higher = less potent
Protocol: as §1

CC(C)(C)C(O)/C(=C/c1ccc(Cl)cc1Cl)n1cncn1 (centres undefined) [Diniconazole]
Conditions	EC10 Bladder size Decrease [µM]	EC10 Eye-jaw distance Decrease [µM]	EC10 LMR dark [µM]	EC10 Otolith-eye distance Decrease [µM]	EC10 Yolk sac size Increase [µM]	EC20 Bladder size Decrease [µM]	EC20 Eye-jaw distance Decrease [µM]	EC20 Head trunk angle Decrease [µM]	EC20 LMR dark [µM]	EC20 Otolith-eye distance Decrease [µM]	EC20 Yolk sac size Increase [µM]	EC50 Bladder size Decrease [µM]	EC50 Eye-jaw distance Decrease [µM]	EC50 LMR dark [µM]	EC50 Otolith-eye distance Decrease [µM]	EC50 Yolk sac size Increase [µM]
Danio rerio embryo [1]	1.71	–	–	–	–	–	–	–	–	–	–	–	–	–	–	–
Danio rerio embryo [2]	–	–	–	–	–	–	–	–	–	–	–	2.35	–	–	–	–
Danio rerio embryo [3]	–	2.39	–	–	–	–	–	–	–	–	–	–	–	–	–	–
Danio rerio embryo [4]	–	–	–	–	–	–	–	–	–	–	–	–	2.91	–	–	–
Danio rerio embryo [7]	–	–	–	–	–	–	–	–	2.86	–	–	–	–	–	–	–
Danio rerio embryo [10]	–	–	–	–	–	1.92	–	–	–	–	–	–	–	–	–	–
Danio rerio embryo [11]	–	–	–	–	–	–	–	–	–	–	–	–	–	–	–	3.05
Danio rerio embryo [13]	–	–	–	–	–	–	2.57	–	–	–	–	–	–	–	–	–
Danio rerio embryo [14]	–	–	–	–	–	–	–	–	–	4.28	–	–	–	–	–	–
Danio rerio embryo [19]	–	–	–	3.74	–	–	–	–	–	–	–	–	–	–	–	–
Danio rerio embryo [20]	–	–	–	–	–	–	–	–	–	–	1.74	–	–	–	–	–
Danio rerio embryo [22]	–	–	2.25	–	–	–	–	–	–	–	–	–	–	–	–	–
Danio rerio embryo [23]	–	–	–	–	–	–	–	3.2	–	–	–	–	–	–	–	–
Danio rerio embryo [25]	–	–	–	–	1.26	–	–	–	–	–	–	–	–	–	–	–
Danio rerio embryo [26]	–	–	–	–	–	–	–	–	–	–	–	–	–	4.3	–	–
Danio rerio embryo [28]	–	–	–	–	–	–	–	–	–	–	–	–	–	–	5.4	–

Conditions	EC10 Any effect [µM]	EC10 Body length Decrease [µM]	EC10 Curvature Increase [µM]	EC10 Pericard size Increase [µM]	EC20 Any effect [µM]	EC20 Body length Decrease [µM]	EC20 Curvature Increase [µM]	EC20 Pericard size Increase [µM]	EC50 Any effect [µM]	EC50 Body length Decrease [µM]	EC50 Curvature Increase [µM]	EC50 LMR ligth decrease [µM]	EC50 Pericard size Increase [µM]	EC50 Pigmentation increase [µM]	spontaneous tail coiling frequency
Danio rerio embryo [5], exposure time: 2 dpf	–	–	–	–	–	–	–	–	3.77	–	–	–	–	–	–
Danio rerio embryo [5], exposure time: 4 dpf	–	–	–	–	–	–	–	–	2.61	–	–	2.31	–	11.8	–
Danio rerio embryo [6], exposure time: 2 dpf	–	–	–	–	–	7.36	–	–	–	–	–	–	–	–	–
Danio rerio embryo [6], exposure time: 4 dpf	–	–	–	–	–	6.12	–	–	–	–	–	–	–	–	–
Danio rerio embryo [8], exposure time: 2 dpf	–	–	–	–	–	–	–	2.51	–	–	–	–	–	–	–
Danio rerio embryo [8], exposure time: 4 dpf	–	–	–	–	–	–	–	3.81	–	–	–	–	–	–	–
Danio rerio embryo [9], exposure time: 2 dpf	–	–	–	–	–	–	4.89	–	–	–	–	–	–	–	–
Danio rerio embryo [9], exposure time: 4 dpf	–	–	–	–	–	–	3.75	–	–	–	–	–	–	–	–
Danio rerio embryo [12], exposure time: 2 dpf	2.63	–	–	–	–	–	–	–	–	–	–	–	–	–	–
Danio rerio embryo [12], exposure time: 4 dpf	1.56	–	–	–	–	–	–	–	–	–	–	–	–	–	–
Danio rerio embryo [15], exposure time: 2 dpf	–	–	3.94	–	–	–	–	–	–	–	–	–	–	–	–
Danio rerio embryo [15], exposure time: 4 dpf	–	–	2.76	–	–	–	–	–	–	–	–	–	–	–	–
Danio rerio embryo [16], 1.13 µM	–	–	–	–	–	–	–	–	–	–	–	–	–	–	1.89
Danio rerio embryo [16], 1.7 µM	–	–	–	–	–	–	–	–	–	–	–	–	–	–	2.58 ± 0.22
Danio rerio embryo [16], 2.55 µM	–	–	–	–	–	–	–	–	–	–	–	–	–	–	2.31 ± 0.11
Danio rerio embryo [16], 3.8 µM	–	–	–	–	–	–	–	–	–	–	–	–	–	–	2.05 ± 0.38
Danio rerio embryo [16], 5.75 µM	–	–	–	–	–	–	–	–	–	–	–	–	–	–	2.87
Danio rerio embryo [16], 7.66 µM	–	–	–	–	–	–	–	–	–	–	–	–	–	–	3.42 ± 0.86
Danio rerio embryo [16], 9.2 µM	–	–	–	–	–	–	–	–	–	–	–	–	–	–	3.35
Danio rerio embryo [17], exposure time: 2 dpf	–	6.73	–	–	–	–	–	–	–	–	–	–	–	–	–
Danio rerio embryo [17], exposure time: 4 dpf	–	5.67	–	–	–	–	–	–	–	–	–	–	–	–	–
Danio rerio embryo [18], exposure time: 2 dpf	–	–	–	–	–	–	–	–	–	–	–	–	5.78	–	–
Danio rerio embryo [18], exposure time: 4 dpf	–	–	–	–	–	–	–	–	–	–	–	–	3.83	–	–
Danio rerio embryo [21], exposure time: 2 dpf	–	–	–	–	–	–	–	–	–	–	7.07	–	–	–	–
Danio rerio embryo [21], exposure time: 4 dpf	–	–	–	–	–	–	–	–	–	–	6.35	–	–	–	–
Danio rerio embryo [24], exposure time: 2 dpf	–	–	–	1.54	–	–	–	–	–	–	–	–	–	–	–
Danio rerio embryo [24], exposure time: 4 dpf	–	–	–	3.8	–	–	–	–	–	–	–	–	–	–	–
Danio rerio embryo [27], exposure time: 2 dpf	–	–	–	–	–	–	–	–	–	8.59	–	–	–	–	–
Danio rerio embryo [27], exposure time: 4 dpf	–	–	–	–	–	–	–	–	–	6.97	–	–	–	–	–
Danio rerio embryo [29], exposure time: 2 dpf	–	–	–	–	3	–	–	–	–	–	–	–	–	–	–
Danio rerio embryo [29], exposure time: 4 dpf	–	–	–	–	1.89	–	–	–	–	–	–	–	–	–	–
